# Results reported in ChEMBL document CHEMBL3044992, “Design, synthesis, and docking studies of novel ofloxacin analogues as antimicrobial agents” (2012).
# Key:
# Type in all cases: functional
# Bacillus subtilis = assay: Antibacterial activity against Bacillus subtilis after 24 hr by two-fold serial dilution method
# Candida albicans [1] = assay: Antifungal activity against Candida albicans at 25 ug/ml after 48 hr […]; details: read-out: IZ
# Pseudomonas aeruginosa = assay: Antibacterial activity against Pseudomonas aeruginosa after 24 hr by two-fold serial dilution method
# Candida albicans [2] = assay: Antifungal activity against Candida albicans at 100 ug/ml after 48 hr […]; details: read-out: IZ
# Escherichia coli = assay: Antibacterial activity against Escherichia coli after 24 hr by two-fold serial dilution method
# Candida albicans [3] = assay: Antifungal activity against Candida albicans at 50 ug/ml after 48 hr […]; details: read-out: IZ
# [4] = tested on: Staphylococcus epidermidis; assay: Antibacterial activity against Staphylococcus epidermidis after 24 hr by two-fold serial dilution method
# Klebsiella pneumoniae = assay: Antibacterial activity against Klebsiella pneumoniae after 24 hr by two-fold serial dilution method
# Staphylococcus aureus = assay: Antibacterial activity against Staphylococcus aureus after 24 hr by two-fold serial dilution method
SMILES,MIC (Bacillus subtilis),zone of inhibition at 25 µg/mL (Candida albicans [1]),MIC (Pseudomonas aeruginosa),zone of inhibition at 100 µg/mL (Candida albicans [2]),MIC (Escherichia coli),zone of inhibition at 50 µg/mL (Candida albicans [3]),MIC [4],MIC (Klebsiella pneumoniae),MIC (Staphylococcus aureus)
CC1COc2c(N3CCN(C)CC3)c(F)cc3c(=O)c(C(=O)NNC=O)cn1c23 (stereo not given),0.5 µg/mL,18 mm,1 µg/mL,23 mm,1 µg/mL,21 mm,0.25 µg/mL,1 µg/mL,0.25 µg/mL
CC1COc2c(N3CCN(C)CC3)c(F)cc3c(=O)c(C(=O)N/N=C/c4ccccc4)cn1c23 (stereo not given),0.5 µg/mL,15 mm,1 µg/mL,21 mm,1 µg/mL,18 mm,0.25 µg/mL,0.25 µg/mL,0.125 µg/mL
CC1COc2c(N3CCN(C)CC3)c(F)cc3c(=O)c(C(=O)N/N=C/c4cccc([N+](=O)[O-])c4)cn1c23 (stereo not given),0.5 µg/mL,15 mm,0.5 µg/mL,20 mm,0.5 µg/mL,17 mm,0.25 µg/mL,0.5 µg/mL,0.25 µg/mL
CC1COc2c(N3CCN(C)CC3)c(F)cc3c(=O)c(-c4nn(CCC(=O)c5ccc(N)cc5)c(=S)o4)cn1c23 (stereo not given),0.5 µg/mL,17 mm,0.5 µg/mL,21 mm,0.25 µg/mL,18 mm,0.5 µg/mL,0.5 µg/mL,0.25 µg/mL
CC1COc2c(N3CCN(C)CC3)c(F)cc3c(=O)c(C(=O)N/N=C/c4ccccc4O)cn1c23 (stereo not given),0.5 µg/mL,15 mm,0.12 µg/mL,21 mm,1 µg/mL,18 mm,0.25 µg/mL,1 µg/mL,0.25 µg/mL
CC1COc2c(N3CCN(C)CC3)c(F)cc3c(=O)c(C(=O)O)cn1c23 (stereo not given) [OFLOXACIN],1 µg/mL,21 mm,–,28 mm,–,26 mm,0.5 µg/mL,0.06 µg/mL,0.25 µg/mL
CC1COc2c(N3CCN(C)CC3)c(F)cc3c(=O)c(-c4nn(CCC(=O)Cc5cccc([N+](=O)[O-])c5)c(=S)n4N)cn1c23 (stereo not given),0.5 µg/mL,16 mm,0.25 µg/mL,21 mm,1 µg/mL,18 mm,0.5 µg/mL,0.12 µg/mL,0.25 µg/mL
CC1COc2c(N3CCN(C)CC3)c(F)cc3c(=O)c(-c4nn(CCC(=O)c5ccccc5O)c(=S)n4N)cn1c23 (stereo not given),0.5 µg/mL,15 mm,0.5 µg/mL,21 mm,1 µg/mL,17 mm,0.5 µg/mL,0.12 µg/mL,0.25 µg/mL
CC(=O)CCn1nc(-c2cn3c4c(c(N5CCN(C)CC5)c(F)cc4c2=O)OCC3C)n(N)c1=S (stereo not given),0.5 µg/mL,16 mm,0.5 µg/mL,22 mm,0.5 µg/mL,18 mm,0.5 µg/mL,0.12 µg/mL,3.12 µg/mL
CC1COc2c(N3CCN(C)CC3)c(F)cc3c(=O)c(-c4nn(CCC(=O)c5ccccc5)c(=S)o4)cn1c23 (stereo not given),0.5 µg/mL,16 mm,2 µg/mL,22 mm,1 µg/mL,19 mm,0.5 µg/mL,0.25 µg/mL,0.25 µg/mL
COc1ccc(/C=N/NC(=O)c2cn3c4c(c(N5CCN(C)CC5)c(F)cc4c2=O)OCC3C)cc1 (stereo not given),0.5 µg/mL,18 mm,0.5 µg/mL,23 mm,0.5 µg/mL,20 mm,0.25 µg/mL,0.5 µg/mL,0.125 µg/mL
CC1COc2c(N3CCN(C)CC3)c(F)cc3c(=O)c(C(=O)N/N=C/c4ccccc4Cl)cn1c23 (stereo not given),0.5 µg/mL,16 mm,0.25 µg/mL,22 mm,0.5 µg/mL,18 mm,0.5 µg/mL,0.12 µg/mL,0.125 µg/mL
CC(=O)CCn1nc(-c2cn3c4c(c(N5CCN(C)CC5)c(F)cc4c2=O)OCC3C)oc1=S (stereo not given),0.5 µg/mL,15 mm,0.25 µg/mL,22 mm,0.25 µg/mL,18 mm,0.25 µg/mL,0.12 µg/mL,0.25 µg/mL
